In patent US4877776A, “K-252 compounds” (Kyowa Hakko Kogyo Co., Ltd., priority 1987, dated 1989):
Values after ≈ are worked out from the molar mass of the structure shown. Read-outs that look alike come from different tables or passages of the source.

What was measured:
[1] = test system: MCF7 cells (human breast cancer cell MCF7); test: MCF7 cell growth inhibition test; type: cell-based; settings: read-out: IC50, MCF7 cell growth inhibitory activity
Procedure: (§1) Compound (I) obtained by the present invention was examined for C-kinase inhibitory activity and cell growth inhibitory activity by the following methods.
(§2) Cell growth inhibition tests:
(1) MCF7 cell growth inhibition test:
(§3) MCF7 cells (4.5×10^4 cells/ml) pepared in RPMI 1640 medium containing 10% fetal calf serum, 10 μg/ml insulin and 10^-8 M estradiol are put into wells of a 96-well microtiter plate in the amount of 0.1 ml per each well. After incubation at 37° C. overnight in CO2 -incubator, 0.05 ml of a test sample appropriately diluted with the culture medium is added to each well. The cells are further cultured in CO2 -incubator, and then the culture supernatant is removed and the wells are washed once with PBS(-). Thereafter, 0.1 ml of fresh medium is added to each well, followed by culturing at 37° C. for 72 hours in CO2 -incubator. After the culture supernatant is removed, 0.1 ml of the culture medium containing 0.02% Neutral Red is added to each well, followed by culturing at 37° C. for one hour in CO2 -incubator, whereby the cells are stained. Then, the culture supernatant is removed and the cells are washed once with physiological saline. The pigment is extracted with 0.001N hydrochloric acid/30% ethanol and absorption is measured at 550 nm with a microplate reader. By comparing the absorption of intact cells with those of the cells treated with a test compound at known concentrations, the concentration of the test compound at which growth of the cells is inhibited 50% is calculated as IC50.

[2] = biological target: C-kinase (protein kinase C); test: C-Kinase inhibitory activity test; type: biochemical; settings: concentration at which enzyme activity was inhibited 50%
Procedure: as §1
C-Kinase inhibitory activity test:
C-Kinase inhibitory activity of representative Compounds (I) was measured in accordance with the method of Y. Nishizuka, et al. [J. Biol. Chem., 257, 13341 (1982)]. The test was carried out on test compounds at varied concentrations, and the concentration at which the enzyme activity was inhibited 50% (IC50) was determined.

[3] = test system: COLO320DM cells (human colon adenocarcinoma cell COLO320DM); test: COLO320DM cell growth inhibition test; type: cell-based; settings: COLO 320DM, read-out: IC50, COLO320DM cell growth inhibitory activity
Procedure: as §1, §2
(3) COLO320DM cell growth inhibition test:
COLO320DM cells (10^5 cells/ml) prepared in RPMI 1640 medium containing 10% fetal calf serum, 100 U/ml penicillin and 100 μg/ml streptomycin are put into wells of a 96-well microtiter plate in the amount of 0.1 ml per each well. Thereafter, the test is carried out in the same manner as in (1) except that the cells are counted with a microcell counter. By comparing the number of intact cells with those of the cells treated with a test compound at known concentrations, the concentration of the test compound at which growth of the cells is inhibited 50% is calculated as IC50.

[4] = test system: HeLaS3 cells (human uterine cervical cancer HeLa cells); test: HeLaS3 cell growth inhibition test; type: cell-based; settings: read-out: IC50, HeLaS3 cell growth inhibitory activity
Procedure: as §1, §2, §3
(2) HaLaS3 cell growth inhibition test:
HeLaS3 cells (3×10^4 cells/ml) prepared in MEM medium containing 10% fetal calf serum and 2 mM glutamine are put into wells of a 96-well microtiter plate in the amount of 0.1 ml per each well.
Thereafter, the test is carried out in the same manner as in (1).

histamine release = settings: in words, from other filings; cited from earlier work
[5] = in words, from other filing; cited from earlier work
C-kinase = settings: in words, cited from earlier work; for inhibitory activity against C-kinase: from literature or other filings; for specificity of C-kinase inhibition: from literature
[6] = in words, from literature; cited from earlier work
[7] = COLO320DM, cells counted with a microcell counter, 72 hours
[8] = HeLa S3, HeLaS3, Neutral Red, 72 hours

| Compound | IC50, C-Kinase inhibitory activity [2] [µg/mL] | inhibitory activity against C-kinase (C-kinase) | specificity of C-kinase inhibition (C-kinase) | other results |
| --- | --- | --- | --- | --- |
| COC(=O)C1(O)CC2OC1(C)n1c3ccccc3c3c4c(c5c6ccccc6n2c5c31)C(=O)NC4O (centres unmarked) [Compound 5] | 1.2 (≈ 2.48 µM) |  |  | IC50 ([1]; MCF7, Neutral Red, 72 hours): 0.8 µg/mL (≈ 1.65 µM); IC50 [3, 7]: 2.55 µg/mL (≈ 5.27 µM); IC50 [4, 8]: 1.53 µg/mL (≈ 3.16 µM) |
| CCSC1NC(=O)c2c1c1c3ccccc3n3c1c1c2c2ccccc2n1C1CC(O)(CO)C3(C)O1 (centres unmarked) [Compound 7] | 0.18 (≈ 0.36 µM) |  |  | IC50 ([1]; MCF7, Neutral Red, 72 hours): 5.08 µg/mL (≈ 10.2 µM); IC50 [3, 7]: 1 µg/mL (≈ 2 µM); IC50 [4, 8]: 1.43 µg/mL (≈ 2.86 µM) |
| COC(=O)C1(O)CC2OC1(C)n1c3ccccc3c3c4c(c5c6ccccc6n2c5c31)C(=O)NC4 (centres unmarked) [Compound K-252] | 0.016 (≈ 0.0342 µM) |  |  | IC50 ([1]; MCF7, 72 h): 0.51 µg/mL (≈ 1.09 µM); IC50 ([3]; 72 h): 0.27 µg/mL (≈ 0.578 µM); activity to inhibit histamine release (histamine release): activity to inhibit histamine release; anti-allergic activity [5]: anti-allergic activity; IC50 ([4]; HeLa S3, 72 h): 0.2 µg/mL (≈ 0.428 µM) |
| NCCCCCCNS(=O)(=O)c1cccc2c(Cl)cccc12 [Compound W-7, N-(6-aminohexyl)-5-chloro-1-naphthalenesulfonamide] |  | low inhibitory activity against C-kinase | low specificity |  |
| CC12OC(CC1(O)C(=O)O)n1c3ccccc3c3c4c(c5c6ccccc6n2c5c31)CNC4=O (centres unmarked) [KT-5556] |  |  |  | activity to inhibit histamine release (histamine release): activity to inhibit histamine release |
| CN[C@@H]1C[C@H]2O[C@@](C)([C@@H]1OC)n1c3ccccc3c3c4c(c5c6ccccc6n2c5c31)C(=O)NC4 [Staurosporine] |  |  |  | antibacterial activity [6]: antibacterial activity |
| CN(C)CCCN1c2ccccc2Sc2ccc(Cl)cc21 [chlorpromazine] |  | low inhibitory activity against C-kinase | low specificity |  |
| ClCCN(Cc1ccccc1)Cc1ccccc1 [dibenamine] |  | low inhibitory activity against C-kinase | low specificity |  |
| CCCCNc1ccc(C(=O)OCCN(C)C)cc1 [tetracaine] |  | low inhibitory activity against C-kinase | low specificity |  |
| CN1CCN(CCCN2c3ccccc3Sc3ccc(C(F)(F)F)cc32)CC1 [trifluoperazine] |  | low inhibitory activity against C-kinase | low specificity |  |
